This is an account of results in ChEMBL document CHEMBL1157071, “Phenolic constituents of the aerial parts of Cimicifuga simplex and Cimicifuga japonica” (J Nat Prod, 2010).

As a reminder, the IC50 is the point on the concentration scale where inhibition reaches its midpoint. A higher IC50 goes with lower potency.

The target of this test is T1, Hyaluronidase-1 (Homo sapiens, UniProt Q12794).
T1 sequence (Q12794 whole entry): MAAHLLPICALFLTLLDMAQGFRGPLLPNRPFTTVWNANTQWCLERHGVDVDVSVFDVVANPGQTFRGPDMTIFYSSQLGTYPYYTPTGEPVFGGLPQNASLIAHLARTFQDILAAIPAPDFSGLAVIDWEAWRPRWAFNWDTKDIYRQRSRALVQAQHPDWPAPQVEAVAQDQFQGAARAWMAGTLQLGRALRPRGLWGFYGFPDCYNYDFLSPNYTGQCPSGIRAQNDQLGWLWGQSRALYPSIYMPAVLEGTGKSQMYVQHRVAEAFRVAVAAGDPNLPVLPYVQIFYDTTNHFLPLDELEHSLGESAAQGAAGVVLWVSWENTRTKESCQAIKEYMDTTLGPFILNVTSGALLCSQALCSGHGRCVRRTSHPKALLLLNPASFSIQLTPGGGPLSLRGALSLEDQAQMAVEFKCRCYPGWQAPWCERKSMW
Nature of the test: Inhibition of hyaluronidase.
As for `O=C(/C=C/c1ccc(O)cc1)O[C@H](C(=O)O)[C@](O)(Cc1ccc(O)cc1)C(=O)O` [CIMICIFUGIC ACID K], the IC50 turned out to be 255 µM.
The compound `O=C(/C=C/c1ccc(O)c(O)c1)O[C@H](C(=O)O)[C@](O)(Cc1ccccc1)C(=O)O` [CIMICIFUGIC ACID M] displayed an IC50 of 173 µM.
Under `COc1cc(/C=C/C(=O)O)ccc1O` [FERULATE] stands above 2000 µM; under `O=C(O)/C=C/c1ccc(O)c(O)c1` [CAFFEIC ACID], above 2000 µM; under `O=C(/C=C/c1ccc(O)c(O)c1)O[C@H](Cc1ccc(O)c(O)c1)C(=O)O` [ROSMARINIC ACID], 545 µM.
Take `COc1ccc(/C=C/C(=O)O[C@H](C(=O)O)[C@](O)(Cc2ccc(O)cc2)C(=O)O)cc1OC` [CIMICIFUGIC ACID L]: the IC50 came out at 102 µM. Compared with the last compound, the IC50 is about 5.3-fold lower.
Under `COc1ccc(/C=C\C(=O)O[C@H](C(=O)O)[C@](O)(Cc2ccc(O)c(O)c2)C(=O)O)cc1OC` [CIMICIFUGIC ACID N] stands 120 µM.
